Several values for one entry are separate records, joined by “and”; a condition that tells them apart may be missing. Equal entries are not always repeated.
Columns and labels:
[1] = Dose required to inhibit HLF cells by 50 percent; details: Homo sapiens, read-out: LD50
HeLa = assay: Inhibitory activity against HeLa cell line using 3-(4,5-dimethylthiazol-2-yl)-2,5-diphenyltetrazolium bromide (MTT, Sigma) assay.

Question: For NCCNCCNCCN [TRIENTINE], which CC50 [1] is on record?
Answer: Its CC50 is 3100 µM.

Question: And the IC50 (HeLa)?
Answer: The IC50 was 74.8 µM and 7.8 µM.

Source: ChEMBL document CHEMBL1145870, “Triethylene tetraamine: a novel telomerase inhibitor” (Bioorg Med Chem Lett, 2003)
